We go through two molecules from patent US20090069441A1, “Motuporamine Mimic Agents” (priority 2006, published 2009).

The subject of assay [1] is Drosophila imaginal leg discs. Briefly: Imaginal disc eversion assay. It counts as cell-based, Drosophila melanogaster. Conditions: Drosophila melanogaster, 15 hr incubation in Robb's medium. On the procedure:
DihydroMotuporamine C, 4a, was used to develop an imaginal disc assay in Drosophila flies. The imaginal leg discs were collected by microscopic dissection from maggots. […] Inhibition was measured as failure of the disc to fully develop into a fly leg after 15 hr of incubation in Robb's growth medium. This presumably occurs by overactivation of Rho, an important signaling pathway in development. Hyper-stimulation of this pathway is sufficient to block development of the fly leg.
Fly Stocks: 20 female and 5 male wild type Oregon variant of Drosophila melanogaster interbred in blue food medium for 24 hours then flies are removed. Third instar wall-crawling larvae collected then dissected on the sixth day. Flies kept in 25° C. incubation chamber.
Blue Food Preparation: Standard corn meal medium heated then mixed completely with aqueous 1% Bromophenol Blue. The food medium is cooled for one day or more before use.
Dissection Medium: Ringer's Buffer with 10 uL 0.1% BSA. Ringer's Medium consists of 130 mM NaCl, 5 mM KCl, 1.5 mM CaCl2-2H2O, Stored at room temperature (23° C.), BSA added before dissection.
Cultivation Medium: Minimal Robb's Medium with 10 uL 0.1% BSA. Minimal Robb's Medium consists of 40 mM KCl, 0.4 mM KH2PO4, 40 mM NaCl, 0.4 mM NaH2PO4.7H2O, 1.2 mM MgSO4.7H2O, 1.2 mM MgCl2-6H2O, 1 mM CaCl2-2H2O, 10 mM Glucose, 0.2 mM L-asparagine, 4.0 mM L-glutamine, 0.16 mM Glycine, 0.64 mM L-leucine, 0.32 mM L-proline, 0.16 mM R-Serine, 0.64 mM L-valine. Stored at −25° C. One day before dissection, aliquot defrosted in 4° C. Add BSA then warmed to room temperature (23° C.) before dissection.
0.1% BSA: 0.1 g BSA fraction V (Sigma#A-9647) in 10 mL distilled H2O, Stored at 4° C.
Developmental Hormone: 1 mg 20-hydroxyecdysone (Sigma #H-5142) in 1 mL 100% Ethanol. Stored at −25° C. Before use, stock is diluted 10× (1 mL added to 9 mL of 100% Ethanol). 10 μL of diluted 20-hydroxyecdysone is added to culture.
Dissection Procedures: Third instar larvae are removed from cultivation bottle with a wetted brush and washed in dH2O to remove food medium clinging to larvae. The cleaned larvae are dissected in Ringer's Medium using forceps. The imaginal discs are washed in fresh Ringer's Medium, and then cultivated with 1 mL of Robb's Medium in 12-well culture plate. Each culture well should have 30˜40 imaginal discs.
Culturing Procedures: In a larger container, place the 12-well culture plate on a moist towel, then seal the large container. Cultivate at 25° C. for 15 hours. Evaluation: Three categories will be used to grade the eversion of each imaginal disc. Full Eversion—the leg is fully extended from the disc. Partial Eversion—the leg is protruding from the epithelial. No Eversion—no sign of any protrusion.

For assay [2], the system named is polyamine transporter (PAT). Briefly: Ki for inhibition of [14C]spermidine uptake in L1210 cells. It counts as cell-based, mouse. An excerpt: In terms of Table 1, L1210 cells are mouse leukemia cells and are the gold standard in terms of evaluating polyamine cytotoxicity data due to a plethora of prior data in this cell line for other polyamine structures. Clearly 7a was similar in all respects to 4a (Table 1). […] The lower the Ki value, the higher the affinity of the drug for the polyamine transporter (PAT) on the cell surface. Chinese hamster ovary (CHO) cells and a mutant line without an active PAT (CHO-MG) also evaluated the PAT selectivity of these drugs.
L1210 IC50 and Ki studies. […] The Ki values in Table 3 were determined for [^14C]spermidine uptake and reflect the affinity of the polyamine derivative for the polyamine transporter on the cell surface. With both parameters, one can determine whether high affinity for the transporter (e.g., low Ki value) translated into high cytotoxicity (e.g., low IC50 value), etc.
Ki procedure. The ability of the conjugates to interact with the polyamine transport system was determined by measuring competition by the conjugates against radiolabeled spermidine uptake in L1210 cells. Initially, the Km value of spermidine transport was determined as previously described (Clément et al., Biochem. J. 1995, 312, 933-938). The ability of conjugates to compete for [^14C]spermidine uptake were determined in L1210 cells by a 10-min uptake assay in the presence of increasing concentrations of competitor, using 1 μM [^14C]spermidine as substrate. Ki values for inhibition of spermidine uptake were determined using the Cheng-Prusoff equation (Cheng and Prusoff, Biochem. Pharmacol. 1973, 22, 3099-3108) from the IC50 value derived by iterative curve fitting of the sigmoidal equation describing the velocity of spermidine uptake in the presence of the respective competitor (Torossian et al., Biochem. J., 1996, 319, 21-26). L1210 cells were grown and maintained according to established procedures (Bergeron et al., J. Med. Chem. 2000, 43, 224-235) and were washed twice in HBSS prior to the transport assay.

In assay [3] the test system is CHO cells. To be noted: data originally reported in Ref; cited from earlier work.
Assay [4] has as its target polyamine transporter (PAT). Conditions: data originally reported in Ref; read-out: L1210 Ki value; cited from earlier work.

Read-outs that look alike come from different tables or passages of the source.

Regarding `CCN(CCCNCCCN)Cc1c2ccccc2cc2ccccc12` [Compound 7a, N-(3-Amino-propyl)-N′-anthracen-9-ylmethyl-N′-ethyl-propane-1,3-diamine], in assay [1], the inhibition (usually the percentage by which the read-out fell short of the control) at 18 µM amounted to 95%. For the same molecule, the Ki (commonly the dissociation constant of the complex between target and ligand, obtained from inhibition or displacement) in assay [2] (new data, read-out: L1210 Ki value) came to 23500 nM.

Consider `NCCCCNCCCCNCc1c2ccccc2cc2ccccc12` [Compound 6b], for which, in assay [3], the “IC50 Ratio (CHO-MG/CHO), a measure of PAT selectivity” value was 148. The molecule also showed an inhibition at 18 µM in assay [1] of 97%. The Ki in assay [4] was 1800 nM; in assay [2] ([14C]spermidine uptake, 10-min, 1 μM substrate, read-out: L1210 Ki values), 1800 nM.
